Measured values as given in PMC12016938, “A small molecule PKCε inhibitor reduces hyperalgesia induced by paclitaxel or opioid withdrawal” (JCI Insight, 2025).
Values joined by “and” are separate entries in the source; they are usually repeats but may differ in a detail not shown here. Equal values may be shown once.

Tested on: self-administration (addictive potential)
Experiment: I.v. self-administration of CP612, between-session progressive ratio and demand curve
Protocol: We tested the addictive potential of CP612 by examining the extent to which rats are willing to work to obtain CP612. Rats were initially trained to self-administer either saline, morphine (500 μg/kg/i.v. infusion), or 1 of 3 different doses of CP612 (75, 150, or 300 μg/kg/i.v. infusion) for 4 days at fixed ratio 1 (FR1, where 1 nose poke delivers 1 infusion).
During the second phase, the ratio to obtain an infusion increased geometrically every other day (FR1, FR3, FR6, FR12, FR24, FR48, and FR96).
Data (number of self-infusions) were also fitted in an economic-demand curve, which provides an estimate of the motivation to obtain drugs and their addictive potential ([20]). We measured elasticity (α), which is the relative change in consumption as a function of price (i.e., ratio of nose pokes required to obtain an infusion). Behavior is considered “inelastic” when consumption is insensitive to price and “elastic” when consumption is sensitive to price. We also measured Pmax, which is the price at which intake switches from inelastic to elastic. […] (Figure 8B).
Rats not immediately anesthetized were eliminated from the study.
Following this initial acquisition phase at FR1, the ratio to obtain the drug was increased geometrically every other day: FR3 (3 nose pokes are required to obtain 1 infusion of morphine), FR6, FR12, FR24, FR48, and FR96. This allows for analysis of drug consumption as a function of “price” using demand curves for behavioral economics, which can estimate the motivation to obtain drugs and their “addictive potential” ([20]). For this, data from each rat were fitted to the equation log Q = log Q0 + k (e ^–α(Q0 ^C) – 1), where Q represents consumption (number of self-infusions), and Q0 represents the level of consumption at the lowest price. C represents price for the drug (i.e., the ratio), and k is set to a constant accounting for the estimated range of consumption in logarithmic units (k = 4 in these studies). The symbol α is the relative change in consumption across changes in price (ratio). Behavior is considered “inelastic” when consumption is insensitive to price (i.e., the curve is flat, and consumption is maintained despite increases in price), and it switches to “elastic” when consumption is sensitive to price (i.e., when the curve is steep and consumption declines with increases in price). […] We also compared groups for their average intake in the consumption-price curves by measuring α (elasticity) and Pmax.

N[C@H](CNC(=O)C1(c2ccc(Cl)cc2)CCCC1)c1ccc(C(=O)Nc2ccncc2)cc1 [CP612]
AVG Latency (FR1_D1 to D4) (CP612-High, individual rat): 0.277 and 0.6 and 2.3 and 1.8 and 0.8 and 0.9 and 1.0 | AVG Latency (FR1_Last 2 FR1 days) (CP612-High, individual rat): 0.051 and 0.179 and 0.9 and 1.8 and 0.219 and 0.171 | AVG Latency (FR1_Last 4 FR1 days) (CP612-High, individual rat): 0.076 and 0.283 and 1.5 and 1.8 and 0.8 and 0.9 and 0.53 | AVG Latency (FR3) (CP612-High, individual rat): 1.2 and 0.116 and 2.8 and 0.5 and 0.236 and 1.4 and 0.326 | AVG Latency (FR6) (CP612-High, individual rat): 0.64 and 0.4 and 0.643 and 1.9 and 0.8 and 2.5 and 0.6 | AVG Latency (FR12) (CP612-High, individual rat): 14.4 and 2.6 and 0.5 and 4.0 and 0.6 and 2.1 | AVG Latency (FR24) (CP612-High, individual rat): 1.9 and 0.9 and 0.3 and 0.6 and 2.3 and 1.3 | AVG Latency (FR48) (CP612-High, individual rat): 14.3 and 0.9 and 1.1 and 1.9 and 18.8 and 1.2 | AVG Latency (FR96) (CP612-High, individual rat): 13.6 and 1.5 and 0.9 and 12.9 and 2.4 and 0.8 | D1 Latency (FR1) (CP612-High, individual rat): 0.857 and 1.7 and 5.4 and 2.9 and 0.6 and 0.743 | D1 Latency (FR3) (CP612-High, individual rat): 2.0 and 0.108 and 0.043 and 0.6 and 0.3 and 0.19 and 0.232 | D1 Latency (FR6) (CP612-High, individual rat): 0.65 and 0.1 and 0.9 and 0.7 and 0.8 and 3.8 and 0.275 | D1 Latency (FR12) (CP612-High, individual rat): 27.0 and 1.2 and 0.527 and 5.7 and 0.283 and 3.2 and 2.2 | D1 Latency (FR24) (CP612-High, individual rat): 1.3 and 0.7 and 0.338 and 0.9 and 1.7 and 1.4 | D1 Latency (FR48) (CP612-High, individual rat): 16.8 and 0.4 and 0.255 and 0.142 and 1.1 and 36.4 and 0.743 | D1 Latency (FR96) (CP612-High, individual rat): 4.4 and 1.8 and 0.643 and 3.1 and 3.3 and 0.647 and 0.7 | D2 Latency (FR1) (CP612-High, individual rat): 0.077 and 0.4 and 2.0 and 0.6 and 2.2 and 0.9 | D2 Latency (FR3) (CP612-High, individual rat): 0.5 and 0.125 and 5.6 and 0.4 and 0.17 and 2.6 | D2 Latency (FR6) (CP612-High, individual rat): 0.6 and 0.7 and 0.4 and 3.1 and 0.8 and 1.2 and 0.9 | D2 Latency (FR12) (CP612-High, individual rat): 1.8 and 4.1 and 0.5 and 2.3 and 0.9 and 1.0 and 2.9 | D2 Latency (FR24) (CP612-High, individual rat): 2.5 and 1.2 and 0.257 and 0.283 and 0.355 and 2.9 | D2 Latency (FR48) (CP612-High, individual rat): 11.8 and 1.4 and 1.9 and 3.7 and 1.1 and 1.2 and 1.7 | D2 Latency (FR96) (CP612-High, individual rat): 22.7 and 1.2 and 1.1 and 1.6 and 0.9 and 2.4 | D3 Latency (FR1) (CP612-High, individual rat): 0.125 and 0.22 and 1.4 and 2.0 and 0.063 and 1.3 and 0.185 | D4 Latency (FR1) (CP612-High, individual rat): 0.05 and 0.138 and 0.457 and 1.7 and 0.375 and 0.547 and 0.158 | last Latency (FR1) (CP612-High, individual rat): 0.052 and 0.138 and 0.457 and 1.7 and 0.375 and 0.547 and 0.158 | last-1 Latency (FR1) (CP612-High, individual rat): 0.05 and 0.22 and 1.4 and 2.0 and 0.063 and 1.3 and 0.185 | last-2 Latency (FR1) (CP612-High, individual rat): 0.125 and 0.4 and 2.0 and 0.6 and 2.2 and 0.9 | last-3 Latency (FR1) (CP612-High, individual rat): 0.077 and 0.4 and 2.0 and 2.9 and 0.6 and 0.9 | AVG Latency (FR1_D1 to D4) (CP612-Low, individual rats): 4.9 and 0.7 and 2.4 and 1.7 and 1.1 | AVG Latency (FR1_Last 2 FR1 days) (CP612-Low, individual rats): 0.358 and 0.6 and 0.284 and 0.9 and 0.159 and 1.0 and 0.2 and 1.2 | AVG Latency (FR1_Last 4 FR1 days) (CP612-Low, individual rats): 1.9 and 0.8 and 0.222 and 0.443 and 1.2 and 0.5 and 0.6 | AVG Latency (FR3) (CP612-Low, individual rats): 0.8 and 1.6 and 4.5 and 0.452 and 0.377 and 4.0 and 0.095 and 0.182 | AVG Latency (FR6) (CP612-Low, individual rats): 1.5 and 1.4 and 2.2 and 0.323 and 0.9 and 0.163 and 0.233 | AVG Latency (FR12) (CP612-Low, individual rats): 1.6 and 0.566 and 0.8 and 0.4 and 2.4 and 1.9 and 1.0 | AVG Latency (FR24) (CP612-Low, individual rats): 3.5 and 0.6 and 1.0 and 0.8 and 0.426 and 5.1 and 1.2 and 0.7 | AVG Latency (FR48) (CP612-Low, individual rats): 0.7 and 2.3 and 2.2 and 0.372 and 0.844 and 2.6 and 0.335 and 1.6 | AVG Latency (FR96) (CP612-Low, individual rats): 1.1 and 0.176 and 4.5 and 0.551 and 1.2 and 0.0585 and 2.6 and 0.259 | D1 Latency (FR1) (CP612-Low, individual rats): 12.2 and 0.368 and 2.4 and 7.3 and 1.0 and 3.8 and 1.9 and 0.7 | D1 Latency (FR3) (CP612-Low, individual rats): 0.425 and 0.5 and 1.0 and 0.458 and 0.7 and 4.6 and 0.155 and 0.173 | D1 Latency (FR6) (CP612-Low, individual rats): 1.3 and 2.2 and 0.473 and 0.533 and 0.9 and 0.183 and 0.32 | D1 Latency (FR12) (CP612-Low, individual rats): 0.9 and 2.3 and 0.7 and 1.3 and 0.66 and 1.0 and 0.6 | D1 Latency (FR24) (CP612-Low, individual rats): 6.2 and 0.9 and 1.5 and 0.7 and 8.8 and 2.1 and 0.19 | D1 Latency (FR48) (CP612-Low, individual rats): 1.1 and 1.6 and 3.8 and 0.332 and 0.655 and 0.6 and 0.368 and 0.073 | D1 Latency (FR96) (CP612-Low, individual rats): 0.8 and 0.108 and 8.1 and 0.57 and 0.062 and 1.6 and 0.143 | D2 Latency (FR1) (CP612-Low, individual rats): 4.7 and 1.8 and 0.14 and 0.425 and 1.0 and 0.13 and 1.5 and 0.027 | D2 Latency (FR3) (CP612-Low, individual rats): 1.1 and 2.8 and 7.9 and 0.445 and 0.067 and 3.5 and 0.035 and 0.2 | D2 Latency (FR6) (CP612-Low, individual rats): 1.7 and 0.562 and 4.0 and 0.658 and 0.112 and 0.9 and 0.143 and 0.147 | D2 Latency (FR12) (CP612-Low, individual rats): 2.2 and 0.8 and 0.4 and 0.355 and 0.1 and 3.4 and 2.9 and 1.5 | D2 Latency (FR24) (CP612-Low, individual rats): 0.76 and 0.282 and 0.4 and 0.9 and 0.148 and 1.5 and 0.188 and 1.2 | D2 Latency (FR48) (CP612-Low, individual rats): 0.337 and 3.0 and 0.6 and 0.4 and 1.0 and 4.6 and 0.3 and 3.2 | D2 Latency (FR96) (CP612-Low, individual rats): 1.5 and 0.245 and 0.8 and 0.533 and 1.6 and 0.055 and 3.5 and 0.375 | D3 Latency (FR1) (CP612-Low, individual rats): 2.1 and 0.145 and 0.175 and 0.9 and 0.5 and 2.5 and 0.8 and 0.017 | D4 Latency (FR1) (CP612-Low, individual rats): 0.433 and 0.6 and 0.143 and 1.0 and 0.3 and 0.258 and 0.24 and 2.0 | last Latency (FR1) (CP612-Low, individual rats): 0.283 and 0.653 and 0.332 and 0.9 and 0.03 and 1.7 and 0.163 and 0.342 | last-1 Latency (FR1) (CP612-Low, individual rats): 0.433 and 0.6 and 0.237 and 1.0 and 0.3 and 0.258 and 0.24 and 2.0 | last-2 Latency (FR1) (CP612-Low, individual rats): 2.1 and 0.145 and 0.143 and 0.9 and 0.5 and 2.5 and 0.8 and 0.017 | last-3 Latency (FR1) (CP612-Low, individual rats): 4.7 and 1.8 and 0.175 and 0.425 and 1.0 and 0.13 and 0.8 and 0.017 | AVG Latency (FR1_D1 to D4) (CP612-Mid, individual rat): 1.3 and 0.461 and 0.5 and 1.6 | AVG Latency (FR1_Last 2 FR1 days) (CP612-Mid, individual rat): 0.475 and 0.9 and 0.261 and 0.6 and 3.4 | AVG Latency (FR1_Last 4 FR1 days) (CP612-Mid, individual rat): 0.356 and 0.538 and 0.317 and 0.363 and 1.9 | AVG Latency (FR3) (CP612-Mid, individual rat): 0.8 and 0.466 and 1.2 and 0.0825 | AVG Latency (FR6) (CP612-Mid, individual rat): 0.633 and 1.0 and 0.8 and 3.0 and 4.9
